The text below walks through data of US11634381B2, “RUNX2 transcription factor inhibitors and uses thereof” (University of Maryland, Baltimore, priority 2015, dated 2023).

Where a SMILES comes first, the peptide text is derived from it. The star is where a group is joined. Cbz = O=C(OCc1ccccc1)*

Series [1] deals with MCF7 RUNX2 Tet.OFF cells. Nature of the series: Suspension culture tumorsphere formation. The series is classed as cell-based, human. The following applies: TAZ siRNA, TGFβ, 12 days. On the procedure:
MCF7 Tet.OFF cells were grown in the presence (+Dox, RUNX2 negative) or absence (−Dox, RUNX2 positive) of doxycycline for 3 days. Cells were then scraped and counted. 60,000 cells were plated in each well of a 6-well ultra-low attachment plate (Corning; 3471) in Promocell Basal Medium (Promocell; c-22211) complete with Supplement Mix (Promocell; c-39216). Cells were then treated with or without 2 ng/mL TGFβ (R&D Systems; 240-B-002). After growth for 10-15 days, wells were photographed and tumorsphere diameters were measured from photographic images (mm). Colony diameters were calculated using the formula: (L+W)/2. Representative photographs were obtained at 4× magnification. […] For TAZ siRNA knockdown experiments, TAZ siRNA was transfected (as below) into MCF7 Tet.OFF cells and 24 hr later cells were scraped and placed into suspension as described above. Small-Interfering RNA (siRNA) pool targeting RUNX1, RUNX2, and non-targeting control were purchased from Dharmacon, and transfected into cells using RNAiMAX Reagent (Invitrogen). Western blot analysis was performed 48 hrs after transfection.

For series [2], the system named is TAZ. The series is described as follows: siRNA mediated knockdown of TAZ (Western blot). It counts as cell-based, human. The following applies: MCF7 Tet.OFF cells, low or high RUNX2. On the procedure:
TAZ knockdown was performed in MCF7 Tet.OFF cells using Custom 23 mer desalted siRNA oligonucleotides from Sigma and a Universal Scrambled Negative Control siRNA Duplex from Origene (Catalog No. SR30004): TAZ siRNA #1: 5′-GACA […]-3′ (SEQ ID NO: 1), TAZ siRNA #2: 5′-[…] GAACAUU-3′ (SEQ ID NO: 2) and TAZ siRNA #3: 5′-[…]-3′ (SEQ ID NO: 3). Briefly, MCF7 Tet.OFF cells were grown in the absence or presence of doxycycline for 3 days and then transfected with corresponding siRNA's using Lipofectamine-2000 (Life Technologies). RIPA extracts were obtained 48 hr post transfection and total protein was analyzed by Western blot (see above) and probed for TAZ protein expression. Protein levels were normalized to actin and quantified using NIH Image-J software.
A general note: A western blot detects proteins with antibodies after separation by electrophoresis.

For series [3], the target named is RUNX2 (Homo sapiens, UniProt Q13950). Nature of the series: Western blot of RUNX2, RUNX1, CBF-β. Details: endogenous in cells; host or cells: MDA-231, MDA-468. The series is classed as cell-based. The following applies: MDA-468 and MCF7 cells, MG132 10 μM alone, 18 hrs. Here is the method:
Whole cell lysates extracted in RIPA buffer (Upstate) were separated on 4-12% gradient SDS-PAGE and transferred to nitrocellulose membrane. The blots were incubated with specific antibodies for each protein overnight at 4° C. After antibody washing, the blots were reacted with their respective secondary antibody and detected with enhanced chemiluminescence reagents (Millipore) according to the supplier's protocol. Antibodies for proteins were purchased as below. RUNX1, RUNX2, CBF-β, ubiquitin and caspase-3 (Cell Signaling Technologies), S451-p-RUNX2 (Bioss Gentaur, Belgium), RUNX3 and Glut-1 (Millipore, Calif.), β-actin and RUNX2 antibody for IHC (Sigma-Aldrich), and Ki-67 for IHC (Bethyl Laboratories, Inc, TX).

Series [4] relates to Lats1/2. The series is described as follows: Lats1/2 phosphorylation (Hippo signaling). It counts as cell-based, human. The following applies: HCC1428 cells, rsE-Cad 24 hr. Here is the method: In FIG. 22A HCC1428 luminal BC cells that express E-Cadherin were treated with recombinant soluble E-Cadherin (rsE-Cad) for 24 hr and total cell extracts were analyzed for phosphorylation of the Lats1/2 tumor suppressors. Phospho.Lats1/2 and total Lats1/2 levels declined with rsE-Cad treatment consistent with TAZ translocation to the nucleus, where it acts as an oncogene with RUNX2. […] MCF7 cells expressing RUNX2 (Tet.OFF) were treated with compound 1 drug for 24 hours and total cell extracts were analyzed for phosphp.Lats1/2, total Lats1/2, and RUNX2 expression.

Chain of RUNX2 (Q13950 whole entry): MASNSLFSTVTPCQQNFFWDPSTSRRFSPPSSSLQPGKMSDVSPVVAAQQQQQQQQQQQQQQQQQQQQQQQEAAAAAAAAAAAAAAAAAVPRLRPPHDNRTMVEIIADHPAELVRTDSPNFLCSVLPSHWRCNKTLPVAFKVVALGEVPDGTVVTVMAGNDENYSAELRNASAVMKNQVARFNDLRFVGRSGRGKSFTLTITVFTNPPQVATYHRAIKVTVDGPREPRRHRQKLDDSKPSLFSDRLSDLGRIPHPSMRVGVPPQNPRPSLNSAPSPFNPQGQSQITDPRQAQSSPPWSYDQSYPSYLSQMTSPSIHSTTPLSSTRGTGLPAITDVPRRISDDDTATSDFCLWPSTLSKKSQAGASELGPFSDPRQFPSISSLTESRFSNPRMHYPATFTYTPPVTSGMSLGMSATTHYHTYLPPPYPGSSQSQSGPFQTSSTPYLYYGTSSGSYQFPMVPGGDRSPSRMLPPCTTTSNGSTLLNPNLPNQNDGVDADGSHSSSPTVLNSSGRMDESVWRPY

Consider “5′-AAGCCUAGCUCGUGGCGGAUU-3′ (listed as RNA, chemistry not given here) [TAZ siRNA #3]”, for which the tumorsphere size result in series [1] (RUNX2 negative cells) is on record as “no significant effect”; in series [1] (RUNX2 positive cells), 6.05±3.12 mm. Besides, in series [2], the “TAZ knockdown to levels of control (scrambled siRNA)” value (from here on “TAZ knockdown to levels of control”) came to 30%.

“5′-GACA UGAGAUCCAUCACUAUU-3′ (GACAUGAGAUCCAUCACUAUU; listed as RNA, chemistry not given here) [TAZ siRNA #1]”: the tumorsphere size was 4.85±2.11 mm in series [1] (RUNX2 negative cells) and 4.43±1.47 mm in series [1] (RUNX2 positive cells). Moreover, the “TAZ knockdown to levels of control” value in series [2] was 70-80%.

“5′-GGACAAACACCCAU GAACAUU-3′ (GGACAAACACCCAUGAACAUU; listed as RNA, chemistry not given here) [TAZ siRNA #2]”: the tumorsphere size is recorded as 5.16±1.91 mm in series [1] (RUNX2 negative cells) and 5.35±2.42 mm in series [1] (RUNX2 positive cells). Also, the “TAZ knockdown to levels of control” value in series [2] is 50-70%.

Consider `CC(C)C[C@@H](C=O)NC(=O)[C@H](CC(C)C)NC(=O)[C@H](CC(C)C)NC(=O)OCc1ccccc1` [MG132, reference compound] (Cbz-Leu-Leu-Leu-aldehyde), for which, in series [3], the RUNX2 protein stability entry is listed as “increased”.

B1: recombinant soluble E-Cadherin: recombinant soluble E-Cadherin (rsE-Cad) (protein, UniProt P12830 155-709, looked up)
extracellular domain: DWVIPPISCPENEKGPFPKNLVQIKSNKDKEGKVFYSITGQGADTPPVGVFIIERETGWLKVTEPLDRERIATYTLFSHAVSSNGNAVEDPMEILITVTDQNDNKPEFTQEVFKGSVMEGALPGTSVMEVTATDADDDVNTYNAAIAYTILSQDPELPDKNMFTINRNTGVISVVTTGLDRESFPTYTLVVQAADLQGEGLSTTATAVITVTDTNDNPPIFNPTTYKGQVPENEANVVITTLKVTDADAPNTPAWEAVYTILNDDGGQFVVTTNPVNNDGILKTAKGLDFEAKQQYILHVAVTNVVPFEVSLTTSTATVTVDVLDVNEAPIFVPPEKRVEVSEDFGVGQEITSYTAQEPDTFMEQKITYRIWRDTANWLEINPDTGAISTRAELDREDFEHVKNSTYTALIIATDNGSPVATGTGTLLLILSDVNDNAPIPEPRTIFFCERNPKPQVINIIDADLPPNTSPFTAELTHGASANWTIQYNDPTQESIILKPKMALEVGDYKINLKLMDNQNKDQVTTLEVSVCDCEGAAGVCRKAQPVEAGLQIPA
modifications: extracellular domain
As for B1, the “phosphorylation of the Lats1/2 tumor suppressors” value in series [4] is “decline in phosphorylation”.
